Test results as given in publication PMC3519854, “High Yield Production and Refolding of the Double-Knot Toxin, an Activator of TRPV1 Channels” (PLoS ONE, 2012).
Positions of bridges follow the written chain, without caps; N, C: chain ends. Residues, ends and D or L forms follow the SMILES beside them.

Experiments:
[1] = molecular target: T1, rat TRPV1 (Rattus norvegicus, UniProt O35433); assay: Two-electrode voltage clamp recording of TRPV1 activation in oocytes; format: cell-based; settings: for Relative potency as TRPV1 agonist: comparison of DkTx, K1 and K2, concentration-dependence in oocytes; for Hill coefficient for activation of TRPV1 / Reversibility of TRPV1 activation after removal of the toxin / Activation of TRPV1 channels (evoked currents): rat TRPV1 in Xenopus oocytes; for Hill coefficient for activation of TRPV1: concentration-dependence; for Activation of TRPV1 channels (evoked currents): holding voltage −60 mV, DkTx applied at 1 µM
T1 construct: expressed in transfected cells; host or cells: Xenopus laevis oocytes injected with cRNA (pGEM-HE vector)
T1 sequence (O35433 whole entry): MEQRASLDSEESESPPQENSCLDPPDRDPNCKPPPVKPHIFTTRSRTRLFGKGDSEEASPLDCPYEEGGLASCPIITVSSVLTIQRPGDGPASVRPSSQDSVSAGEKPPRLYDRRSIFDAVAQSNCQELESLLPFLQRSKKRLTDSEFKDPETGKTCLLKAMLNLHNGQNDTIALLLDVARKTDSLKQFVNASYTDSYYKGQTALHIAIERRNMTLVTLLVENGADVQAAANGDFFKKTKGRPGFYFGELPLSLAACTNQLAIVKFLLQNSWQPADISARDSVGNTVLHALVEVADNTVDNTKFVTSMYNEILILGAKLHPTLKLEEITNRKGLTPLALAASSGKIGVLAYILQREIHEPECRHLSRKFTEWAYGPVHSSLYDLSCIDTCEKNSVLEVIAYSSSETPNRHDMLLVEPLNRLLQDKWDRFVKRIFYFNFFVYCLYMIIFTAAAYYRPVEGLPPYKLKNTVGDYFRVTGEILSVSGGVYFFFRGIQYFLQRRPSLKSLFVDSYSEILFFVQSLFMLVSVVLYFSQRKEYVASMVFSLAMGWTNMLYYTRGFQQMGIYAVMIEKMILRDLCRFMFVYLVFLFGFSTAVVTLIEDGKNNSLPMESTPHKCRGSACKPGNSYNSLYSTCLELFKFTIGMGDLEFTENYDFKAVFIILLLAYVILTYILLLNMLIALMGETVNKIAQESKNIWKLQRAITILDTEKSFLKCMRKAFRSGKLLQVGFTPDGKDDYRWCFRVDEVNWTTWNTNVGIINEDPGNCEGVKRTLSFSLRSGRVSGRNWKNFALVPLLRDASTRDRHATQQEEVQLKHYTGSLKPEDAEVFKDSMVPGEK
Experimental: (§1) Oocytes were surgically removed from anesthetized Xenopus laevis frogs in accordance with protocol 1253-12 approved by the National Institute of Neurological Disorders and Stroke Animal Care and Use Committee. Oocytes were gently shaken for 60 min in a solution of 82.5 mM NaCl, 2.5 mM KCl, 1 mM MgCl2, 5 mM HEPES and 2 mg/mL collagenase. A rat TRPV1 construct (generously provided by D. Julius, UCSF) was cloned into the pGEM-HE vector, and used to generate cRNA. The cRNA was then injected into oocytes, which were then incubated for 1–3 days at 17°C in ND-96 solution (96 mM NaCl, 2 mM KCl, 5 mM HEPES, 1 mM MgCl2 and 50 µg/mL gentamycin, titrated to pH 7.6 with NaOH). TRPV1 activity was recorded under voltage clamp using a two-electrode voltage clamp (OC-725C; Warner Instruments) in a 150-µL recording chamber. The recorded data were filtered at 1 kHz and digitized at 5 kHz using a digidata analog/digital converter and pClamp software (Molecular Devices). Microelectrode resistances were 0.1–1 MΩ when filled with 3 M KCl. The external recording solution contained 115 mM NaCl, 2.5 mM KCl, 1.5 mM MgCl2 and 10 mM HEPES, titrated to pH 7.4 with NaOH. All experiments were performed at room temperature (∼22°C).
Figure 6 Activity of K1, K2 and DkTx on TRPV1 channels. (A) Synthetic K1, K2 and DkTx activate TRPV1 channels. Oocytes were held at −60 mV and toxins were added to the recording chamber. (B) Concentration-dependence for activation of TRPV1 by the toxins.
(§2) The functional activities of DkTx, K1 and K2 were also compared by recording their electrophysiological effects on TRPV1-expressing cells.

[2] = system: A657P mutant of TRPV1; assay: Two-electrode voltage clamp recording on the A657P mutant of TRPV1; format: cell-based; settings: data not shown
Experimental: as §1, §2

[3] = Relative hydrophobicity by RP-HPLC elution of folded versus linear toxin; format: physicochemical; settings: RP-HPLC C18, acetonitrile/water gradient with 0.1% TFA, qualitative
Experimental: Figure 3 Purification and activity of the DkTx folding product. (A) Purification of linear DkTx. Cleavage of the fusion protein and reduction of the disulfide bond were accomplished using hydroxylamine and DTT, respectively, as described in methods. (B) Linear DkTx was folded in 1 M NH4OAc (pH 8.0) buffer containing 1 M GdnHCl, 1 mM EDTA, 2.5 mM GSH and 0.25 mM GSSG for 5 days at 4°C. The toxins were purified using a linear gradient of 29–44% solvent B for 15 min at a flow rate of 14 ml/min, where solvent A was water containing 0.1% TFA and solvent B was acetonitrile containing 0.1% TFA. (C) Fraction 5 activated TRPV1 expressed in oocytes. Holding voltage was −60 mV.
Figure 4 HPLC profiles of DkTx during the folding reaction. The peptides were separated using a linear gradient of 5–65% solvent B for 30 min at a flow rate of 1 ml/min, where solvent A was water containing 0.1% TFA and solvent B was acetonitrile containing 0.1% TFA. (A) Oxidative folding of DkTx in redox buffer was monitored by HPLC. Asterisks indicate correctly folded DkTx. (B) HPLC chromatogram of purified DkTx. Dashed and solid arrows indicate the minor and major forms of DkTx, respectively. […]
Figure 5 Folding kinetics of K1, K2 and DkTx. […] Quantification of the folding specifies was accomplished using HPLC. The correctly folded form (%) was determined based on the areas of the HPLC peaks. […]

[4] = system: A657P mutant of TRPV1; settings: cited from earlier work
Description: as §2

Molecule	Relative potency as TRPV1 agonist [1]	Hill coefficient for activation of TRPV1 [1]	Reversibility of TRPV1 activation after removal of the toxin ([1]; −60 mV)	Activation of the A657P mutant of TRPV1 [2]	Hydrophobicity of the correctly folded form relative to the linear form [3]	Block of DkTx-evoked TRPV1 currents ([1]; currents evoked by 1 µM DkTx in oocytes, −60 mV)	Activation of TRPV1 channels (evoked currents) [1]	Activation of TRPV1 channels (evoked currents) ([1]; listed as fraction 5)	Sensitivity of the A657P mutant of TRPV1 to toxin [4]
CC[C@H](C)[C@@H]1NC(=O)[C@H](Cc2ccccc2)NC(=O)[C@H](C)NC(=O)[C@H](CC(C)C)NC(=O)[C@@H]2CCCN2C(=O)[C@@H]2CSSC[C@@H]3NC(=O)[C@H](C(C)C)NC(=O)[C@H](CCC(=O)O)NC(=O)CNC(=O)[C@H](CCC(=O)O)NC(=O)[C@H](CCCCN)NC(=O)[C@H](C)NC(=O)[C@@H](NC(=O)[C@@H](N)CC(N)=O)CSSC[C@H](NC(=O)[C@H](CSSC[C@@H](C(=O)N[C@@H](CCC(=O)O)C(=O)N[C@@H](CCCCN)C(=O)N[C@@H](Cc4ccc(O)cc4)C(=O)N[C@@H](CCCNC(=N)N)C(=O)O)NC(=O)[C@H](Cc4ccc(O)cc4)NC(=O)[C@@H]4CCCN4C1=O)NC(=O)[C@H](CCCCN)NC(=O)[C@H](CO)NC(=O)CNC(=O)[C@H](Cc1c[nH]c4ccccc14)NC(=O)CNC3=O)C(=O)N[C@@H](Cc1c[nH]cn1)C(=O)NCC(=O)N[C@@H](CC(C)C)C(=O)N[C@@H](CC(=O)O)C(=O)N2 [K2] (H-NCAKEGEVCGWGSKCCHGLDCPLAFIPYCEKYR-OH; disulfide 2-16, 9-21, 15-29 (inferred); N-terminus and C-terminus assumed)	more active than K1	about 4	readily reversible	neither toxin activated the channel	more hydrophobic than the linear or misfolded forms	–	–	–	–
N.N.N.N.N.N.N.N.N.N.N.N.N.N.[Cl-].[Cl-].[Cl-].[Cl-].[Cl-].[Cl-].[O-2].[O-2].[Ru+3].[Ru+3].[Ru+4] [ruthenium red, reference compound]	–	–	–	–	–	blocked	–	–	–
GDCAKEGEVCSWGKKCCDLDNFYCPMEFIPHCKKYKPYVPVTTNCAKEGEVCGWGSKCCHGLDCPLAFIPYCEKYR (disulfide 3-17, 10-24, 16-32, 45-59, 52-64, 58-72 (inferred)) [DkTx, double-knot toxin]	most potent TRPV1 agonist among the three toxins	~1	decayed slowly	–	more hydrophobic than the linear form	–	evoked large currents	robustly activated TRPV1 channels	insensitive
